The subject of assay [1] is chronic social defeat stress mice. As to the kind of experiment: Chronic social defeat stress, sucrose preference test. The conditions noted are these: for sustained effect on reduced sucrose preference: 8, 15, 29, 57 days after single i.p. dose (PA-915 30 mg/kg, ketamine 20 mg/kg), fluoxetine: after withdrawal of 14-day administration. Type of assay: in vivo, mouse. The method, then:
In a sucrose preference test, mice are exposed to a sucrose solution and regular water contained in bottles at the same time. Normal mice prefer to drink the sweet sucrose solution, whereas depressed mice drink the sucrose solution at a decreased ratio.
(§1) Chronic social defeat stress was applied at 10 min/day for 10 days (Days 1 to 10) to male C57BL/6N mice (8 to 12 weeks old) each reared in isolation for 10 days or longer. On Day 11, SPAT was conducted, and susceptible mice were selected. A vehicle (10% DMSO solution; dissolved in saline; n=11) or PA-8 (30 mg/kg; n=9) was intraperitoneally administered once daily (0.1 mL/10 g) for 7 consecutive days from day 12. The sucrose preference test was conducted (a sucrose preference ratio was studied for 17 hours) 30 minutes after the final administration on the 7th day (Day 18). Mice reared for 10 days in a home cage without chronic social defeat stress load were used as a control (n=10). The data was indicated by mean±standard error. *P<0.05 (One-way ANOVA followed by Tukey-Kramer test).
as §1, with “PA-9” for “PA-8”, “n=9 or 8)” for “n=9)”, “after administration on” for “after”, “first day (Day 12) and” for “final administration”, “18). […]” for “18).”
Chronic social defeat stress was applied at 10 min/day for 10 days (Days 1 to 10) to male C57BL/6N mice (8 to 12 weeks old) each reared in isolation for 10 days or longer. On Day 11, SPAT was conducted, and susceptible mice were selected. On the next day (Day 12), a vehicle (10% DMSO solution; dissolved in saline; n=11) or PA-915 (30 mg/kg; n=10) was intraperitoneally administered (0.1 mL/10 g) to the mice. The sucrose preference test was conducted (a sucrose preference ratio was studied for 17 hours) from 30 minutes after administration. Mice reared for 10 days in a home cage without chronic social defeat stress load were used as a control (n=15). The data was indicated by mean±standard error. *P<0.05 (One-way ANOVA followed by Tukey-Kramer test).
Chronic social defeat stress was applied at 10 min/day for 10 days (Days 1 to 10) to male C57BL/6N mice (8 to 12 weeks old) each reared in isolation for 10 days or longer. On Day 11, the social preference or avoidance test (SPAT) was conducted, and susceptible mice were selected. On the next day (Day 12), a vehicle (V: 10% DMSO solution; dissolved in saline; n=17), PA-915 (P: 30 mg/kg; n=15), ketamine (K: 20 mg/kg; n=15) or fluoxetine (F: 20 mg/kg; n=16, n=15 only on Day 69) was intraperitoneally administered (0.1 mL/10 g) to the mice. The sucrose preference test was conducted 24 hours later (Day 13), 8 days later (Day 20), 15 days later (Day 27), 29 days later (Day 41), and 57 days later (Day 69) (a sucrose preference ratio was studied on each day from 5:00 p.m. of the previous day to 10:00 a.m. of the day). However, for the fluoxetine administration group, consecutive administration (F: 20 mg/kg, intraperitoneal administration (0.1 mL/10 g)) was performed for 14 days from Day 12 to Day 26. Mice reared for 10 days in a home cage without chronic social defeat stress load were used as a control (n=22). The data was indicated by mean±standard error. **P<0.01; *P<0.05 (One-way ANOVA followed by Tukey-Kramer test). […]

For assay [2], the system named is single-restraint stress mice. The experiment in a line: Single-restraint stress-induced anxiety-like behavior, open field test. Type of assay: in vivo, mouse. The conditions noted are these: 30 mg/kg i.p. 30 min before 30 min restraint; 10 min test. The method, then:
Male C57BL/6J mice (8 to 12 weeks old) were acclimatized to a laboratory (illuminance: 40 lx) for 60 minutes. Then, a vehicle (10% DMSO solution; dissolved in saline; n=11), PA-8 (30 mg/kg; n=11) or PA-81004 (30 mg/kg; n=8) was intraperitoneally administered thereto (0.1 mL/10 g). After a lapse of 30 minutes after administration, restraint stress (stress caused by holding the mice in tubes of 2.8 cm in diameter with a hole for breathing) was applied thereto for 30 minutes. The mice were allowed to freely explore an open field cage for 10 minutes from immediately after the completion of restraint. Mice that freely behaved in a home cage for 30 minutes without being held and without accessing water and food were used as a control (n=10). The results are shown in FIG. 9 (A: total distance traveled, B: the number of center zone entries, C: time spent in the center zone). The data was indicated by mean±standard error. **P<0.01, *P<0.05 (One-way ANOVA followed by Tukey-Kramer test). […] Male C57BL/6J mice (8 to 12 weeks old) were acclimatized to a laboratory (illuminance: 40 lx) for 60 minutes. Then, a vehicle (10% DMSO solution; dissolved in saline; n=10), PA-9 (30 mg/kg; n=13) or PA-915 (30 mg/kg; n=12) was intraperitoneally administered thereto (0.1 mL/10 g). After a lapse of 30 minutes after administration, restraint stress (stress caused by holding the mice in tubes of 2.8 cm in diameter with a hole for breathing) was applied thereto for 30 minutes. The mice were allowed to freely explore an open field cage for 10 minutes from immediately after the completion of restraint. Mice that freely behaved in a home cage for 30 minutes without being held and without accessing water and food were used as a control (n=10). The results are shown in FIG. 11 (A: total distance traveled, B: the number of center zone entries, C: time spent in the center zone). The data was indicated by mean±standard error. **P<0.01, *P<0.05 (One-way ANOVA followed by Tukey-Kramer test).

Setting [3] is: chronic social defeat stress, 30 mg/kg i.p. once daily for 7 days, test 30 min after final administration (Day 18).
Setting [4] is: Example 19, single i.p. dose (PA-915 30 mg/kg, ketamine 20 mg/kg, fluoxetine 20 mg/kg), 24 hours later (Day 13).

For the compound `C=CCOc1ccc(C2CC(=O)Nc3nc(N)[nH]c(=O)c32)cc1OC` (centres unmarked) [PA-8], the “effect on reduced sucrose preference” value in assay [1] (setting [3]) is on record as “improving effect”. In assay [2], the “effect on single-restraint stress-induced anxiety-like behavior (open field test)” value (from here on “effect … (open field test)”) was “improving effects”.

Turning to `O=C(NCCc1c[nH]cn1)C1CC(=O)N(c2n[nH]c3ccccc23)C1` (centres unmarked) [PA-9], the “effect on reduced sucrose preference” value in assay [1] (setting [3]) was “its effect was also sustained after repeated administration for 7 days”; in assay [1] (chronic social defeat stress, 30 mg/kg i.p. single dose (Day 12), test from 30 min after administration, 17 hours), “improved sucrose preference even by single-dose administration”. For the same compound, the “effect … (open field test)” value in assay [2] is “improving effects”.

As for `Nc1nc2c(c(=O)[nH]1)C(c1cccc(OC(F)(F)F)c1)CC(=O)N2` (centres unmarked) [PA-81004, 2-Amino-5-(3-trifluoromethoxyphenyl)-5,8-dihydro-3H,6H-pyrido[2,3-d]pyrimidine-4,7-dione], in assay [2], the “effect … (open field test)” value is recorded as “improving effects”.

In the case of `CNCCC(Oc1ccc(C(F)(F)F)cc1)c1ccccc1` (centres unmarked) [fluoxetine], in assay [1] (Example 19), the “sustained effect on reduced sucrose preference” value was “its effectiveness was not maintained after drug withdrawal”. Further, the “effect on reduced sucrose preference” value in assay [1] (Example 19, fluoxetine 20 mg/kg i.p. 14-day consecutive administration (Day 12 to Day 26)) was “improved reduced sucrose preference”; in assay [1] (setting [4]) it was “did not improve sucrose preference”.

In the case of `CNC1(c2ccccc2Cl)CCCCC1=O` (centres unmarked) [ketamine], the “sustained effect on reduced sucrose preference” value in assay [1] (Example 19) was “maintained its effectiveness 8, 15, 29, and 57 days later”. Also, the “effect on reduced sucrose preference” value in assay [1] (setting [4]) is given as “improved reduced sucrose preference in a fast-acting manner”.

For the origin of these results see patent publication US12458643B2, “Antidepressant/anxiolytic drug in which PAC1 receptor antagonist is used” (KAGOSHIMA UNIVERSITY, priority 2020, dated 2025).
